The target in data set [1] is T1, Solute carrier organic anion transporter family member 1B3 (Homo sapiens, UniProt Q9NPD5).
T1 sequence (Q9NPD5 whole entry): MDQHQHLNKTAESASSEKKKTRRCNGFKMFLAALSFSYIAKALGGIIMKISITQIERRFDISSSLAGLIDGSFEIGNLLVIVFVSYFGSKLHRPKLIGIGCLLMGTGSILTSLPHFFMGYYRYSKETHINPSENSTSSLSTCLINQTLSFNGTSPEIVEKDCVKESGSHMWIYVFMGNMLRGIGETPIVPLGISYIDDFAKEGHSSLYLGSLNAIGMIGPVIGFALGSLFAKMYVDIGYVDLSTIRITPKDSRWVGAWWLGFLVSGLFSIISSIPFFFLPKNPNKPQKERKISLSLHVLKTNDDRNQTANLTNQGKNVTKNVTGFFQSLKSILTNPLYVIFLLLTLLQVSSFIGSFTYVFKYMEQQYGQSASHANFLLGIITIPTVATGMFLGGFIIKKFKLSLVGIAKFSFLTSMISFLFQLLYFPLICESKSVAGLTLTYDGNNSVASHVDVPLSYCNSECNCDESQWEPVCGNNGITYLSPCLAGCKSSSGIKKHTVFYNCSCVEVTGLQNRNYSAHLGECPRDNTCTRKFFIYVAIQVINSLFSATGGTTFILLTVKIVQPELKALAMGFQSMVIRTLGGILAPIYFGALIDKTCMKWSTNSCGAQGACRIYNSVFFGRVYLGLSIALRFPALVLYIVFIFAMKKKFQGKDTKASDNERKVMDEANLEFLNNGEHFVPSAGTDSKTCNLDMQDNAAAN
The settings on record: chinese hamster, cho, 10 µM.

In data set [2] the target is T2, Solute carrier organic anion transporter family member 1B1 (Homo sapiens, UniProt Q9Y6L6).
T2 sequence (Q9Y6L6 whole entry): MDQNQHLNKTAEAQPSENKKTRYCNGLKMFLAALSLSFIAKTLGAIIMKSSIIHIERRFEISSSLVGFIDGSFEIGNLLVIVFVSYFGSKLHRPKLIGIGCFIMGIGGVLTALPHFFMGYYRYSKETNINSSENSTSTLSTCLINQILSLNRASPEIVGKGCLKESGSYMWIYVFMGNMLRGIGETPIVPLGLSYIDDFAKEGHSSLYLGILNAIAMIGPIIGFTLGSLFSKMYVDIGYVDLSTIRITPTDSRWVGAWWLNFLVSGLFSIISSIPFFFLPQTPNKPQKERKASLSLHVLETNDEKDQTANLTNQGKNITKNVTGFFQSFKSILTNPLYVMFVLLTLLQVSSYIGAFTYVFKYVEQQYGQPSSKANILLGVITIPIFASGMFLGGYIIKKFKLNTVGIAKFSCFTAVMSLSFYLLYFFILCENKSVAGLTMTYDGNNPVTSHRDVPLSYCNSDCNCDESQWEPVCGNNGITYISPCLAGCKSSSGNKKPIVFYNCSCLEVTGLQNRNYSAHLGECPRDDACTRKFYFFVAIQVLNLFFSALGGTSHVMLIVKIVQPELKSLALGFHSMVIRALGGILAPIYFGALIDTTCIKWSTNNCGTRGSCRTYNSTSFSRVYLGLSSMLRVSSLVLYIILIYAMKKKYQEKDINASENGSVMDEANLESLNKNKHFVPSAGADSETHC
The note with it: chinese hamster, cho, 10 µM.

Residues, ends and D or L forms follow the SMILES beside them.

As a reminder, the residual activity is the signal under treatment as a percentage of the control signal. Turning to `CC(C)=CCC[C@@H](C)[C@H]1CC[C@@]2(C)C3=C(CC[C@]12C)[C@@]1(C)CC[C@H](O)C(C)(C)[C@@H]1CC3` [LANOSTEROL], the values for the residual activity in data set [1] and in data set [2] were 90.91% and 53.97%, respectively.

Take `COc1ccc(OC)c(C(O)C(C)N)c1.Cl` (configuration not stated) [METHOXAMINE HYDROCHLORIDE]: the residual activity amounted to 104.7% in data set [1] and 80.21% in data set [2].

As to `OC(Cn1cncn1)(Cn1cncn1)c1ccc(F)cc1F` [FLUCONAZOLE], the residual activity came to 106.5% in data set [1] and 86.64% in data set [2].

In the case of `COc1ccc(C(=O)O)c(O)c1OC` [2-HYDROXY-3,4-DIMETHOXYBENZOIC ACID], the residual activity turned out to be 82.78% in data set [1] and 82.39% in data set [2].

In the case of `Cc1cccc(C)c1N=C1NCCCS1` [XYLAZINE], the residual activity is 83.59% in data set [1] and 64.31% in data set [2].

As for `O=C(CCc1ccc(O)cc1)c1c(O)cc(O)cc1O` [PHLORETIN], the residual activity in data set [1] is listed as 98.4%; in data set [2], 83.5%.

Regarding `COc1cc(C)c2c(=O)cc(-c3ccccc3)oc2c1` [METHOXYVONE], the residual activity in data set [1] came to 102.8%; in data set [2], 231.1%.

For `CC[N+](CC)(CC)CCOc1cccc(OCC[N+](CC)(CC)CC)c1OCC[N+](CC)(CC)CC.[I-].[I-].[I-]` [GALLAMINE TRIETHIODIDE], the residual activity in data set [1] came to 79.25%; in data set [2], 91.38%.

`C=C(C)C1Cc2c(ccc(C(=O)O)c2O)O1` (configuration not stated) [TUBAIC ACID]: the results for the residual activity in data set [1] and in data set [2] were 80.8% and 158.2%, respectively.

Turning to `CC(=O)Oc1ccc2c(c1C(C)C)CC[C@H]1C(C)(C)CCC[C@]21C`, the residual activity came to 105.1% in data set [1] and 70.34% in data set [2].

Regarding `CN(C)CCC=C1c2ccccc2C=Cc2ccccc21.Cl` [CYCLOBENZAPRINE HYDROCHLORIDE], the values for the residual activity in data set [1] and in data set [2] were 102.1% and 85.24%, respectively.

Turning to `C[N+]1(C)[C@@H]2C[C@@H](OC(=O)[C@H](CO)c3ccccc3)C[C@H]1[C@@H]1O[C@@H]12.[Br-]` [METHSCOPOLAMINE BROMIDE], the residual activity in data set [1] came to 92.61%; in data set [2], 104.8%.

Turning to `CN(Cc1cc(Br)cc(Br)c1N)C1CCCCC1.Cl` [BROMHEXINE HYDROCHLORIDE], the residual activity in data set [1] is 95.98%; in data set [2], 103.1%.

For the compound `NC[C@H]1CC[C@H](C(=O)O)CC1` [TRANEXAMIC ACID], the residual activity in data set [1] is on record as 102.3%; in data set [2] it was 81.79%.

`CCCC(=O)Nc1ccc(OCC(O)CNC(C)C)c(C(C)=O)c1.Cl` (configuration not stated) [ACEBUTOLOL HYDROCHLORIDE]: the residual activity in data set [1] was determined as 93.16%; in data set [2], 74.42%.

Regarding `CC1(C)C=CC(=O)[C@]2(C)[C@H]3CC[C@@]4(C)[C@H](c5ccoc5)OC(=O)[C@H]5O[C@]54[C@]3(C)C(=O)C[C@@H]12`, the values for the residual activity in data set [1] and in data set [2] were 89.62% and 56.15%, respectively.

For `C[N+](C)(C)CC(=O)O.[Cl-]` [BETAINE HYDROCHLORIDE], the results for the residual activity in data set [1] and in data set [2] were 113.7% and 82.22%, respectively.

Regarding `C=C[C@H]1C[N@@]2CC[C@H]1C[C@@H]2[C@@H](O)c1ccnc2ccccc12` [CINCHONINE], the residual activity in data set [1] is 105.3%; in data set [2], 122.3%.

On to `Cl[C@H]1[C@H](Cl)[C@@H](Cl)[C@@H](Cl)[C@H](Cl)[C@H]1Cl` [LINDANE], for which the residual activity in data set [1] came to 90.09%; in data set [2], 79.82%.

For `Nc1ccc(S(=O)(=O)Nc2ccccn2)cc1` [SULFAPYRIDINE], the residual activity worked out at 105.2% in data set [1] and 73.46% in data set [2].

In the case of `C=C1C2CC[C@@]3(C)[C@H](c4ccoc4)OC(=O)C[C@]13O[C@H]1CC(=O)C(C)(C)[C@H](C(O)C(=O)OC)[C@@]21C` (some centres not stated) [6-HYDROXYANGOLENSIC ACID METHYL ESTER], the residual activity was 61.1% in data set [1] and 23.65% in data set [2].

Take `Oc1ccc2c(c1)OC[C@H]1c3cc4c(cc3O[C@@H]21)OCO4` [MAACKIAIN]: the residual activity in data set [1] stood at 114.4%; in data set [2], 108.2%.

Turning to `O=C1CCc2cc(OCCCCc3nnnn3C3CCCCC3)ccc2N1` [CILOSTAZOL], the residual activity is listed as 98.73% in data set [1] and 207.2% in data set [2].

Turning to `Cc1c(OCC(F)(F)F)ccnc1C[S+]([O-])c1nc2ccccc2[nH]1` (configuration not stated) [LANSOPRAZOLE], the residual activity in data set [1] is listed as 100.5%; in data set [2] it was 95.47%.

With `CCOC(=O)C(C)(C)Oc1ccc(Cl)cc1` [CLOFIBRATE], the residual activity in data set [1] turned out to be 127.7%; in data set [2] it was 114.7%.

Turning to `C[C@](N)(Cc1ccc(O)c(O)c1)C(=O)O` [METHYLDOPA], the residual activity in data set [1] was 103.5%; in data set [2], 111.3%.

For the compound `CC(C)CCCCCOC(=O)COc1cc(Cl)c(Cl)cc1Cl`, the residual activity in data set [1] is listed as 93.76%; in data set [2] it was 105.5%.

As to `O=C(O)/C=C(\CC(=O)O)C(=O)O` [ACONITIC ACID], the residual activity is reported as 88.62% in data set [1] and 102.5% in data set [2].

`CC1(C)CC23C(=O)CCC(O)C2(C)CCC13` (configuration not stated) [3-NOR-3-OXOPANASINSAN-6-OL]: the figures for the residual activity in data set [1] and in data set [2] were 112.2% and 100.8%, respectively.

Regarding `O=C(/C=C/c1ccc(O)c(O)c1)O[C@@H]1C[C@](O)(C(=O)O)C[C@@H](O)[C@H]1O` [CHLOROGENIC ACID], the residual activity was 103.1% in data set [1] and 105.9% in data set [2].

With `CC(C(=O)O)c1cccc(Oc2ccccc2)c1` (configuration not stated) [FENOPROFEN], the residual activity in data set [1] came to 96.37%; in data set [2], 160.2%.

For the compound `C=C1[C@H]2CC[C@@]3(C)[C@H](c4ccoc4)OC(=O)C[C@]13O[C@H]1C[C@H](O)C(C)(C)[C@H](CC(=O)OC)[C@]12C` [3-DEOXY-3beta-HYDROXYANGOLENSIC ACID METHYL ESTER], the residual activity in data set [1] was 59.13%; in data set [2], 50.95%.

Turning to `CS(C)(=O)=O` [DIMETHYL SULFONE], the residual activity in data set [1] is listed as 102.7%; in data set [2], 115.1%.

Consider `O=C(O)c1cc([N+](=O)[O-])ccc1NCCCc1ccccc1` [5-NITRO-2-PHENYLPROPYLAMINOBENZOIC ACID [NPPB]], for which the results for the residual activity in data set [1] and in data set [2] were 33.43% and 40.14%, respectively.

For `COC(=O)[C@@]1(C)CCC[C@]2(C)c3ccc(O)c(C(C)C)c3CC[C@@H]12`, the residual activity worked out at 122.1% in data set [1] and 90.51% in data set [2].

With `CS(=O)(=O)c1ccc(C2=C(c3ccccc3)C(=O)OC2)cc1` [ROFECOXIB], the residual activity was 84.03% in data set [1] and 134.4% in data set [2].

Turning to `COc1ccc2c(c1)OCc1c-2oc2cc(OC)ccc12` [DEHYDROVARIABILIN], the residual activity in data set [1] is listed as 89.07%; in data set [2], 136.9%.

Consider `CCN(CCO)CCCC(C)Nc1ccnc2cc(Cl)ccc12.O=S(=O)(O)O` (configuration not stated) [HYDROXYCHLOROQUINE SULFATE], for which the residual activity in data set [1] is recorded as 90.84%; in data set [2], 90.44%.

In the case of `CN1C(C(=O)Nc2ccccn2)=C(O)c2ccccc2S1(=O)=O` [PIROXICAM], the residual activity in data set [1] is on record as 87.59%; in data set [2] it was 68.52%.

As to `CC(C)C[C@H](NC(=O)CN)C(=O)N[C@@H](Cc1ccccc1)C(=O)O` (H-Gly-Leu-Phe-OH), the residual activity is listed as 114.9% in data set [1] and 118.4% in data set [2].

For `CC1(C)[C@@H](OC(=O)CCC(=O)[O-])CC[C@]2(C)[C@H]3C(=O)C=C4[C@@H]5C[C@@](C)(C(=O)[O-])CC[C@]5(C)CC[C@@]4(C)[C@]3(C)CC[C@@H]12.[Na+].[Na+]` [CARBENOXOLONE SODIUM], the residual activity is 14.47% in data set [1] and 15.44% in data set [2].

The values above are taken from ChEMBL document CHEMBL3039007, “Structure-based identification of OATP1B1/3 inhibitors” (Mol Pharmacol, 2013).
